According to US8748497B2, “Optimized fluorocarbon emulsions for blood substitutes and other therapeutic uses” (Alliance Pharmaceutical Corp., priority 2006, dated 2014):

Test: intravascular persistence of PFOB and PFDB after 60/30% w/v PFOB/PFDB emulsion
Assay type: in vivo
Conditions: rats
Description: FIG. 4 represents typical data for the removal of both PFOB and PFDB. […] In general, the rate constant for PFDB removal is 20-30% less than that of PFOB.
The emulsion composition with the data shown in FIG. 4 contains a 60/30% (w/v) ratio of PFOB/PFDB stabilized by 6% w/v EYP. In this case, the rate constant for PFDB removal is 20% higher than that of PFOB. It might be assumed that in the first few hours after administration that the removal from blood is controlled by k12 (see FIG. 1). The fluorochemical composition of circulating emulsion droplets should, therefore, remain intact. How is it then that the two disperse phase components could have different rate constants? To answer this question, the composition of the intravenously administered droplets can be examined through the use of sedimentation field-flow fractionation (SdFFF) coupled with gas chromatography, thereby confirming the nature of the droplets.

In the case of FC(F)(F)C(F)(F)C(F)(F)C(F)(F)C(F)(F)C(F)(F)C(F)(F)C(F)(F)C(F)(F)C(F)(F)Br [PFDB, perfluorodecyl bromide], the “rate constant for removal, less than that of PFOB” value (in general) was 20-30% and the “rate constant for removal, higher than that of PFOB” value (in this case (FIG. 4), 60/30% w/v PFOB/PFDB, 6% w/v EYP) was 20%.
